The values that follow come from ChEMBL document CHEMBL2062405, “Alkaloids from the root of Isatis indigotica” (J Nat Prod, 2012).

Molecules are shown by their SMILES. pIC50: −log10 of the molar value. Calls of active or inactive are those of the source. No cut-off for these calls is given here.

One experiment has as its system BGC-823. Briefly: Cytotoxicity against human BGC823 cells at 10 uM after 96 hrs by MTT assay. In kind it is functional, cell-based.
The test system of a further experiment is KETR3. Briefly: Cytotoxicity against human Ketr3 cells at 10 uM after 96 hrs by MTT assay. Format: functional, cell-based. (Tetrazolium dyes change colour on reduction, which living cells bring about.)
Experiment [1] can be described thus: Hepatoprotective activity in rat WB-F344 cells assessed as inhibition of DL-Galactosamine-induced toxicity at 10 uM incubated for 1 hr prior to DL-Galactosamine-challenge measured after 24 hrs by MTT assay. Format: functional.
For the next experiment, the system named is A549. In words: Cytotoxicity against human A549 cells at 10 uM after 96 hrs by MTT assay. In kind it is functional, cell-based.
A further experiment relates to Human alphaherpesvirus 1. In words: Antiviral activity against Herpes simplex virus 1 at 10 uM. In kind it is functional, organism-based.
A further experiment has as its system MCF7. Briefly: Cytotoxicity against human MCF7 cells at 10 uM after 96 hrs by MTT assay. In kind it is functional, cell-based.
The test system of experiment [2] is Human immunodeficiency virus 1. Briefly: Antiviral activity against HIV1 infected in 293T cells cotransfected with VSV-G at 10 uM after 48 hrs by ELISA. Format: functional, organism-based. (In an ELISA, binding on a coated surface is turned into a signal by an enzyme label.)
In another experiment the test system is Bel-7402. In words: Cytotoxicity against human Bel7402 cells at 10 uM after 96 hrs by MTT assay. Format: functional, cell-based.
The next experiment relates to HCT-8. Briefly: Cytotoxicity against human HCT8 cells at 10 uM after 96 hrs by MTT assay. In kind it is functional, cell-based.
For another experiment, the system named is Influenza A virus. Briefly: Antiviral activity against influenza A virus A/Hanfang/359/95 (H3N2) assessed as inhibition of virus-induced cytopathic effect in cell-based assay. Format: functional, organism-based. (In general: Cytopathic effects are the visible damage that an infection or toxin causes in cultured cells.)
The subject of the next experiment is Coxsackievirus B3. In words: Antiviral activity against Coxsackievirus B3 assessed as inhibition of viral replication. In kind it is functional, organism-based. To be noted: Enterovirus B.

`N#CC[C@H]1C(=O)Nc2cccc(O)c21`: the result (in the experiment with BGC-823; with KETR3; in the experiment with A549; with Human alphaherpesvirus 1; with MCF7; in experiment [2]) was inactive. Moreover, the outcome in the experiment with Bel-7402 and with HCT-8 was inactive. Further, the inhibition at 10 µM in experiment [1] was 46%.

Consider `COc1ccc(C(C#N)c2c[nH]c3ccccc23)c2[nH]cc(CC#N)c12` (single isomer, unassigned), for which the pIC50 with Influenza A virus is 5.43. Further, the outcome (in the experiment on BGC-823; in the experiment on KETR3; in the experiment with A549; in the experiment on Human alphaherpesvirus 1; with MCF7; in experiment [2]) was inactive. Besides, the result in the experiment with Bel-7402 and in the experiment on HCT-8 was inactive.

In the case of `COc1ccc([C@@H](C)c2ccc(O)cc2)c2[nH]cc(CC#N)c12`, the pIC50 in the experiment with Influenza A virus was 5.43. The outcome (in the experiment with BGC-823; in the experiment with KETR3; in the experiment with A549; in the experiment with Human alphaherpesvirus 1; with MCF7; in [2]) was inactive. Moreover, the result with Bel-7402 and in the experiment with HCT-8 was inactive.

Regarding `COc1cccc2[nH]cc(CC#N)c12` [ARVELEXIN], the pIC50 in the experiment with Influenza A virus was 5.43. For the same molecule, the result (in the experiment with BGC-823; in the experiment on KETR3; in the experiment on A549; in the experiment on Human alphaherpesvirus 1; in the experiment on MCF7; in [2]) was inactive. Moreover, the result in the experiment with Bel-7402 and with HCT-8 was inactive.

With `CCOC(=O)C1=C[C@@H](OC(CC)CC)[C@H](NC(C)=O)[C@@H](N)C1` [OSELTAMIVIR], in the experiment on Influenza A virus, the pIC50 was 5.91.

As to `O=C1/C(=C/c2c[nH]c3ccccc23)Nc2ccccc21`, the result (in the experiment with BGC-823; in the experiment with KETR3; in the experiment with A549; with Human alphaherpesvirus 1; with MCF7; in experiment [2]) was inactive. In addition, the result in the experiment with Bel-7402 and in the experiment on HCT-8 was inactive. Moreover, the inhibition at 10 µM in experiment [1] was found to be 44%.

`COc1cccc2c1[C@@](O)(CC#N)C(=O)N2`: the outcome (in the experiment with BGC-823; with KETR3; in the experiment with A549; in the experiment with Human alphaherpesvirus 1; in the experiment with MCF7; in [2]) was inactive. Further, the outcome with Bel-7402 and with HCT-8 was inactive. Also, the inhibition at 10 µM in experiment [1] stood at 47%.

Take `NC(=O)CC1C(=O)Nc2ccccc21` (racemic): the result (in the experiment with BGC-823; in the experiment on KETR3; with A549; with Human alphaherpesvirus 1; with MCF7; in experiment [2]) was inactive. The outcome with Bel-7402 and in the experiment with HCT-8 was inactive. Moreover, the pIC50 in the experiment with Coxsackievirus B3 was 5.16.

With `COc1cccc2[nH]cc(C(C#N)c3ccc(OC)c4c(CC#N)c[nH]c34)c12` (single isomer, unassigned), in the experiment on Influenza A virus, the pIC50 is 5.43. The result (in the experiment on BGC-823; in the experiment with KETR3; in the experiment on A549; in the experiment with Human alphaherpesvirus 1; with MCF7; in experiment [2]) was inactive. Besides, the outcome with Bel-7402 and in the experiment with HCT-8 was inactive.

In the case of `NC(=O)[C@@H]1CC(=O)Nc2ccccc21`, the result (in the experiment on BGC-823; with KETR3; with A549; in the experiment with Human alphaherpesvirus 1; in the experiment with MCF7; in experiment [2]) was inactive. The result in the experiment on Bel-7402 and in the experiment on HCT-8 was inactive. In experiment [1], the inhibition at 10 µM stood at 45%.

Take `Cc1cc(CCCOc2c(C)cc(-c3noc(C(F)(F)F)n3)cc2C)on1` [PLECONARIL]: in the experiment on Coxsackievirus B3, the pIC50 is 6.39.

For orientation: inhibition means how much of the control response was suppressed. One may read the pIC50 as the IC50 on a negative log10 scale, so that one unit is a factor of ten.
